According to ChEMBL document CHEMBL4390649, “Fine-tuning the neuroprotective and blood-brain barrier permeability profile of multi-target agents designed to prevent progressive mitochondrial dysfunction” (Eur J Med Chem, 2019):
The source made the active and inactive calls. The rule behind the calls is not given here.

Assays:
SH-SY5Y [1] = test: Neuroprotective activity against TBHP-induced oxidative damage in human SH-SY5Y cells assessed as increase in cell viability at 10 uM pretreated for 24 hrs followed by TBHP stimulation measured after 4 hrs by MTT assay relative to control; type: functional, cell-based
[2] = Cytotoxicity against human SH-SY5Y cells assessed as cell metabolic activity at 50 uM incubated for 24 hrs by MTT assay relative to control; type: ADME, cell-based; conditions: read-out: Activity
[3] = Cytotoxicity against human HepG2 cells assessed as cell metabolic activity at 10 uM incubated for 48 hrs by resazurin assay relative to control; type: ADME, cell-based; conditions: read-out: Activity
[4] = Antioxidant activity assessed as DPPH radical scavenging activity measured after 45 mins by UV-Visible spectrophotometric based assay; type: functional
[5] = Antioxidant activity assessed as ABTS radical scavenging activity measured after 15 mins by UV-Visible spectrophotometric based assay; type: functional
[6] = Electrochemical behavior of the compound assessed as redox potential corrected toward saturated Ag/AgCl reference electrode by cyclic voltammetry
[7] = Electrochemical behavior of the compound assessed as redox potential corrected toward saturated Ag/AgCl reference electrode by differential pulse voltammetry
[8] = Metal chelating activity assessed as compound-Fe2+ complex formation at 100 uM incubated for 10 mins by ferrozine spectrophotometric assay
[9] = Cytotoxicity against human SH-SY5Y cells assessed as cell metabolic activity at 10 uM incubated for 24 hrs by MTT assay relative to control; type: ADME, cell-based; conditions: read-out: Activity
[10] = Cytotoxicity against human HepG2 cells assessed as cell metabolic activity at 50 uM incubated for 48 hrs by resazurin assay relative to control; type: ADME, cell-based; conditions: read-out: Activity
SH-SY5Y [11] = test: Induction of ROS generation in human SH-SY5Y cells at 50 uM incubated for 24 hrs by DCFH-DA probe based fluorescence assay relative to control; type: functional
SH-SY5Y [12] = test: Neuroprotective activity against 6-OHDA-induced toxicity in human SH-SY5Y cells assessed as reduction in cell damage at 10 to 50 uM pretreated for 24 hrs followed by 6-OHDA challenge and measured after 24 hrs by MTT assay relative to control; type: functional; parameters: scale not given: the % may be the effect or the level left
SH-SY5Y [13] = test: Neuroprotective activity against H2O2-induced oxidative damage in human SH-SY5Y cells assessed as reduction in cell damage at 10 uM pretreated for 24 hrs followed by H2O2 challenge measured after 30 mins by MTT assay relative to control; type: functional; parameters: scale not given: the % may be the effect or the level left
SH-SY5Y [14] = test: Neuroprotective activity against H2O2-induced oxidative damage in human SH-SY5Y cells assessed as reduction in cell damage at 50 uM pretreated for 24 hrs followed by H2O2 challenge measured after 30 mins by MTT assay relative to control; type: functional; parameters: scale not given: the % may be the effect or the level left
SH-SY5Y [15] = test: Neuroprotective activity against TBHP-induced oxidative damage in human SH-SY5Y cells assessed as increase in cell viability at 50 uM pretreated for 24 hrs followed by TBHP stimulation measured after 4 hrs by MTT assay relative to control; type: functional
[16] = Cytotoxicity against human CMEC/D3 cells assessed as reduction in cell viability at 50 to 100 uM incubated for 4 hrs by MTT assay relative to control; type: cell-based; conditions: hcmec/d3, 4 h
[17] = Apparent permeability across apical to basolateral side in human CMEC/D3 cells at 100 uM incubated up to 180 mins by UV-VIS spectroscopic method; type: ADME, cell-based; conditions: hcmec/d3, 3 h
[18] = Apparent permeability across apical to basolateral side in human CMEC/D3 cells at 100 uM incubated by UV-VIS spectroscopic method; type: ADME, cell-based; conditions: hcmec/d3, 100 µM, TDE = time-dependent effect
SH-SY5Y [19] = test: Cytotoxicity against human SH-SY5Y cells assessed as reduction in cell viability at 10 uM incubated for 24 hrs by MTT assay relative to control; type: cell-based
SH-SY5Y [20] = test: Cytotoxicity against human SH-SY5Y cells assessed as reduction in cell viability incubated for 24 hrs by MTT assay relative to control; type: cell-based
HepG2 = test: Cytotoxicity against human HepG2 cells assessed as reduction in cell viability incubated for 48 hrs by resazurin assay relative to control; type: cell-based; conditions: hepg2, 48 h
SH-SY5Y [21] = test: Neuroprotective activity against 6-OHDA-induced toxicity in human SH-SY5Y cells assessed as reduction in cell damage at 10 uM pretreated for 24 hrs followed by 6-OHDA challenge and measured after 24 hrs by MTT assay relative to control; type: functional; parameters: scale not given: the % may be the effect or the level left

SMILES	Activity (SH-SY5Y [1])	viability at 24 h, 50 µM [2] [%]	viability at 48 h, 10 µM [3] [%]	IC50 [4] [µM]	IC50 [5] [µM]	Activity [6] [mV]	Activity [7] [mV]	Activity [8] [%]	viability at 24 h, 10 µM [9] [%]	viability at 48 h, 50 µM [10] [%]	Activity (SH-SY5Y [11])	Activity (SH-SY5Y [12])	Activity (SH-SY5Y [13])	Activity (SH-SY5Y [14])	Activity (SH-SY5Y [15])	Activity [16]	permeability [17] [%]	permeability [18]	Activity (SH-SY5Y [20])	Activity (HepG2)	also measured
CS(=O)(=O)[O-].O=C(CCc1cc(O)c(O)c(O)c1)NCCCCCCCCCC[P+](c1ccccc1)(c1ccccc1)c1ccccc1	inactive	96.3	106	23.2	11.9	12	537	> 80	92.8	108	Active	66.5 - 70.2%	70.8 - 83.3%	70.8 - 83.3%	inactive	Non-Toxic	33.1	Tde			
CS(=O)(=O)[O-].O=C(/C=C/c1ccc(O)c(O)c1)NCCCCCCCCCC[P+](c1ccccc1)(c1ccccc1)c1ccccc1	inactive	15.9	9.19	25.9	23.5	174	174	> 80	104	8.24	132.5%	inactive			inactive				Dose-dependent effect	Dose-dependent effect	Activity (SH-SY5Y [19]): < 45%
CS(=O)(=O)[O-].O=C(CCc1ccc(O)c(O)c1)NCCCCCCCCCC[P+](c1ccccc1)(c1ccccc1)c1ccccc1	inactive	72.5	41.8	59.1	30.1	122	122	> 80	96	8.22	96.2%				inactive				Dose-dependent effect	Dose-dependent effect	Activity (SH-SY5Y [19]): < 45%
O=C(NCCCCCCCCCC[P+](c1ccccc1)(c1ccccc1)c1ccccc1)c1ccc(O)c(O)c1.[Br-]	inactive	31.1	44.6	31	19.4	210	210	> 80	97.8	2.4	68.4%	inactive	inactive		inactive				Dose-dependent effect	Dose-dependent effect	Activity (SH-SY5Y [19]): < 45%
CS(=O)(=O)[O-].O=C(Cc1cc(O)c(O)c(O)c1)NCCCCCCCCCC[P+](c1ccccc1)(c1ccccc1)c1ccccc1	inactive	95.3	102	20.7	7.6	11	594	> 80	95.2	93.6	Active	66.5 - 70.2%	70.8 - 83.3%	70.8 - 83.3%	inactive	Non-Toxic	27.7	Tde			
CS(=O)(=O)[O-].O=C(/C=C/c1cc(O)c(O)c(O)c1)NCCCCCC[P+](c1ccccc1)(c1ccccc1)c1ccccc1	inactive	94	105	19	12.2	34	709	> 80	104	94.7	Active				inactive						Activity (SH-SY5Y [21]): 19.8%
CS(=O)(=O)[O-].O=C(Cc1ccc(O)c(O)c1)NCCCCCCCCCC[P+](c1ccccc1)(c1ccccc1)c1ccccc1	inactive	85.7	85.2	56.4	28.1	122	122	> 80	94.5	10.7	103.4%				inactive				Dose-dependent effect	Dose-dependent effect	
CS(=O)(=O)[O-].O=C(Cc1cc(O)c(O)c(O)c1)NCCCCCC[P+](c1ccccc1)(c1ccccc1)c1ccccc1	inactive	93.7	106	23.5	9.5	58	469	95.3	90.6	87.7	Active	Active	inactive	inactive	inactive	Non-Toxic	65.4	Tde			
